In patent publication US9127044B2, “Cyclic depsipeptides” (NOVARTIS AG, priority 2007, dated 2015):
Where “and” joins values, the source holds several entries; their conditions need not be identical. Equal values may be shown once.

Experiments:
human kallikrein 7 = human kallikrein 7 (Homo sapiens, UniProt P49862); assay: Kallikrein-7 inhibitory activity in vitro (fluorescence-quenched substrate); format: biochemical
hairless SKH1 mice = assay: Test on recovery of skin barrier disruption in mice (TEWL); format: in vivo; details: 10 mM
Method: The procedure was completed when transepidermal water loss (TEWL) achieved ≧40 mg/cm^2/h. TEWL was assessed with a Tewameter TM210 (Courage Khazaka, Cologne, Del.). Immediately after barrier disruption 30 μl the test compound was applied at 10 mM concentration. Control animals were treated similarly with the solvent (ethanol/propylene glycol, 3/7 (v/v)) alone. TEWL was measured before, immediately after, and at 3 hrs after barrier disruption. In each animal, the percentage recovery was calculated using the formula: (1−[TEWL at 3 hrs−base line TEWL]/[TEWL immediately after stripping−base line TEWL])×100%.

Crl:NMRI mice = assay: Anti-inflammatory activity in murine model of allergic contact dermatitis (ACD), oxazolone; format: in vivo; details: for Δ Auricular weights Mean (SD): 10 μl topical 30 min after challenge, n: 8 animals per group; for % Inhibition of inflammatory swelling Mean ± SE: single topical application, p<0.001 vs solvent-treated animals
Method: Method: Crl:NMRI mice were sensitized on the shaved abdomen with 50 μl of 2% oxazolone on day 1 and challenged with 10 μl oxazolone on the inner surface of the right ear on day 8. The unchallenged left ears served as normal controls and dermatitis was evaluated from the difference in auricular weight (taken as a measure of inflammatory swelling) on day 9. The animals were treated topically with 10 μl test compound or the solvent only 30 min after the challenge. The efficacy of the treatment was calculated as the percentage inhibition of inflammatory auricular swelling relative to animals treated with the vehicle alone.

[1] = test system: Swine Model of Allergic Contact Dermatitis (ACD); assay: Anti-inflammatory activity in swine model of allergic contact dermatitis (ACD), DNFB; format: in vivo
Method: Eight days before the elicitation of the ACD, […] of 10% 2,4-dinitrofluorobenzene (DNFB, dissolved in DMSO/acetone/olive oil [1/5/3, v/v/v]) were applied epicutaneously in divided volumes onto the basis of both ears and onto both groins (100 μl/site) for sensitization. The challenge reactions were elicited with 15 μl of DNFB (1.0%) on contralateral test sites (each 7 cm^2 in size) of the shaved dorsolateral back. For treatment, the test compound and the placebo (solvent only) were applied contralaterally to 2 test sites in each animal 0.5 and 6 hrs after the challenge. The test sites were clinically examined 24 hrs after the challenge when inflammation peaked. The changes were scored on a scale from 0 to 4 (Table 15), allowing a combined maximal score of 12 per designated site. Skin reddening was measured reflectometrically using a* values.

Chain of human kallikrein 7 (P49862 30-253): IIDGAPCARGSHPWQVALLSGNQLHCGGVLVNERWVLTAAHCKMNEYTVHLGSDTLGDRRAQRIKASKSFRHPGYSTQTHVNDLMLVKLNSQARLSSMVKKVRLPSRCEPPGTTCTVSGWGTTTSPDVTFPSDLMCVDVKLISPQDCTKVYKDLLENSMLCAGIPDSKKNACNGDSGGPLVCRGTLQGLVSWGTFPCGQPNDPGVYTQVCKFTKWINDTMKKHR

Q: Which results are given for `CCC(C)[C@@H]1NC(=O)[C@H](Cc2ccc(O)cc2)N(C)C(=O)[C@H](C(C)CC)N2C(=O)C(CC[C@@H]2O)NC(=O)[C@H](CC(C)C)NC(=O)[C@@H](NC(=O)[C@H](CCC(N)=O)NC(=O)C(C)C)[C@@H](C)OC1=O` (some centres unmarked) [formula II]?
A: IC50 (human kallikrein 7; hKallikrein7 IC50, Table 10): 1 nM; IC50 (human kallikrein 7; hKallikrein7 IC 50, Table 11): 1 nM; % Recovery in barrier disruption Mean (SD values) (hairless SKH1 mice; 30 μl topical, TEWL at 3 hrs, n: 4 animals per group): 72.0 (9.1) %; acceleration of barrier repair compared to repair in mice treated with the solvent alone (hairless SKH1 mice; single topical application, 3 hrs after barrier disruption, p<0.05): 57%; Δ Auricular weights Mean (SD) (Crl:NMRI mice; 10 mM): 17.0 (4.8); % Inhibition of inflammatory swelling Mean ± SE (Crl:NMRI mice; 10 mM): 40% and 40 ± 6.9%; Δ Auricular weights Mean (SD) (Crl:NMRI mice; 30 mM): 15.3 (5.4); % Inhibition of inflammatory swelling Mean ± SE (Crl:NMRI mice; 30 mM): 46% and 46 ± 7.5%; A* value (Mean), skin reddening measured reflectometrically ([1]; 1% solution applied 0.5 and 6 hrs after challenge, 24 hrs, n: 8 test sites): 8.6; Clinical score (Mean) ([1]; 1% solution applied 0.5 and 6 hrs after challenge, scored at 24 hrs, maximal score 12, n: 8 test sites): 5.1; Inhibition vs placebo-treated sites, A* value ([1]; Table 16, 1% test compound): 27.0; Inhibition vs placebo-treated sites, clinical score ([1]; Table 16, 1% test compound): 29.9; inhibition of clinical inflammatory changes ([1]; treated twice with 1% solution, p<0.01): 30%; inhibition of measured skin redness ([1]; treated twice with 1% solution, p<0.05): 27%
